What was measured:
[1] = Tissue distribution following oral administration: blood metabolite nucleoside and liver nucleoside triphosphate levels; parameters: species or system rats; details: rat, in vivo, 5 mg/kg; for Blood Nuc level at 1 hour / Liver NTP level at 1 hour / Blood Nuc level at 5 hours / Liver NTP level at 5 hours: po
Procedure: IV Remdesivir (2 mg/kg), oral Remdesevir (5 mg/kg) and oral test compound (5 mg/kg) were administered to rats. Oral administration was to fasted rats by oral gavage. Plasma concentrations of the metabolite nucleoside in circulation were determined by HPLC-UV, and the liver concentrations of the active triphosphate were measured by LC-MS using standard chromatography methods.
FIG. 4 is a graph showing the ratio of (concentration of corresponding nucleoside in the liver)/(concentration of corresponding nucleoside in the blood) after 1 and 5 hours from the second study.
Table 1 contains the blood and liver levels after 1 and 5 hours for a number of test compounds compared to oral Remdesivir.

[2] = Tissue distribution following inhalation administration: blood and lung metabolite nucleoside and lung triphosphate levels; format: in vivo, rats
Procedure: Remdesivir or the indicated test compound was administered at 2 mg/kg to rats by an inhalation route. The lung concentrations of the metabolite nucleoside and its triphosphate were measured by LC-MS using standard chromatography methods.

Blood Nuc level at 1 hour [1] | Liver NTP level at 1 hour [1] [x] | Blood Nuc level at 5 hours [1] [x] | Liver NTP level at 5 hours [1] [x] | Compound | Liver exposure of nucleoside triphosphate relative to IV or oral Remdesivir [1] | Lung levels of the metabolite nucleoside, exposure relative to Remdesivir ([2]; rat, in vivo, 2 mg/kg) | Nucleoside triphosphate levels in the lung ([2]; rat, in vivo, 2 mg/kg) | Nucleoside triphosphate levels in the lung ([2]; rats, 2 mg/kg inhalation route, FIG. 7)
<1x | ≥2 | <1 | ≥2 | CCOC(=O)c1ccccc1COP1(=O)OC[C@H]2O[C@@](C#N)(c3ccc4c(N)ncnn34)[C@H](O)[C@@H]2O1 (stereo partly drawn) [Compound 101, Ethyl 2-((((4aR,6R,7R,7aS)-6-(4-aminopyrrolo[2,1-f][1,2,4]triazin-7-yl)-6-cyano-7-hydroxy-2-oxidotetrahydro-4H-furo[3,2-d][1,3,2]dioxaphosphinin-2-yl)oxy)methyl)benzoate] | – | – | – | –
≥2x | ≥2 | ≥2 | ≥2 | CCOC(=O)c1ccccc1COP1(=O)OC[C@H]2O[C@@](C#N)(c3ccc4c(N)ncnn34)[C@H](OC(=O)CC)[C@@H]2O1 (stereo partly drawn) [Compound 106, Ethyl 2-((((4aR,6R,7R,7aR)-6-(4-aminopyrrolo[2,1-f][1,2,4]triazin-7-yl)-6-cyano-2-oxido-7-(propionyloxy)tetrahydro-4H-furo[3,2-d][1,3,2]dioxaphosphinin-2-yl)oxy)methyl)benzoate] | – | – | – | –
– | – | – | – | CCC(CC)COC(=O)[C@H](C)N[P@](=O)(OC[C@H]1O[C@@](C#N)(c2ccc3c(N)ncnn23)[C@H](O)[C@@H]1O)Oc1ccccc1 [Remdesivir, reference compound] | – | – | – | below the level of quantitation

Compound | Blood Nuc level at 1 hour [1] | Liver NTP level at 1 hour [1] [x] | Blood Nuc level at 5 hours [1] [x] | Liver NTP level at 5 hours [1] [x] | Liver exposure of nucleoside triphosphate relative to IV or oral Remdesivir [1] | Lung levels of the metabolite nucleoside, exposure relative to Remdesivir ([2]; rat, in vivo, 2 mg/kg) | Nucleoside triphosphate levels in the lung ([2]; rat, in vivo, 2 mg/kg) | Nucleoside triphosphate levels in the lung ([2]; rats, 2 mg/kg inhalation route, FIG. 7)
CCOC(=O)c1ccccc1COP1(=O)OC[C@H]2O[C@@](C#N)(c3ccc4c(N)ncnn34)[C@H](OC(C)=O)[C@@H]2O1 (stereo partly drawn) [Compound 105, Ethyl 2-((((4aR,6R,7R,7aR)-7-acetoxy-6-(4-aminopyrrolo[2,1-f][1,2,4]triazin-7-yl)-6-cyano-2-oxidotetrahydro-4H-furo[3,2-d][1,3,2]dioxaphosphinin-2-yl)oxy)methyl)benzoate] | ≥2x* | ≥2 | ≥2 | ≥2 | significantly greater liver exposure than either IV or oral Remdesivir | more than 4 times | significant lung exposure of the triphosphate | –
